As a reminder, the pIC50 is the IC50 on a negative log10 scale, so that one unit is a factor of ten. A lower pIC50 goes with a high IC50. The GI50 is the concentration giving 50% growth inhibition. Low readings indicate greater sensitivity of the cells, high ones lower sensitivity of the cells.

Series [1] has as its target T1, DNA topoisomerase 1 (Homo sapiens) (UniProt P11387).
T1 sequence (whole entry): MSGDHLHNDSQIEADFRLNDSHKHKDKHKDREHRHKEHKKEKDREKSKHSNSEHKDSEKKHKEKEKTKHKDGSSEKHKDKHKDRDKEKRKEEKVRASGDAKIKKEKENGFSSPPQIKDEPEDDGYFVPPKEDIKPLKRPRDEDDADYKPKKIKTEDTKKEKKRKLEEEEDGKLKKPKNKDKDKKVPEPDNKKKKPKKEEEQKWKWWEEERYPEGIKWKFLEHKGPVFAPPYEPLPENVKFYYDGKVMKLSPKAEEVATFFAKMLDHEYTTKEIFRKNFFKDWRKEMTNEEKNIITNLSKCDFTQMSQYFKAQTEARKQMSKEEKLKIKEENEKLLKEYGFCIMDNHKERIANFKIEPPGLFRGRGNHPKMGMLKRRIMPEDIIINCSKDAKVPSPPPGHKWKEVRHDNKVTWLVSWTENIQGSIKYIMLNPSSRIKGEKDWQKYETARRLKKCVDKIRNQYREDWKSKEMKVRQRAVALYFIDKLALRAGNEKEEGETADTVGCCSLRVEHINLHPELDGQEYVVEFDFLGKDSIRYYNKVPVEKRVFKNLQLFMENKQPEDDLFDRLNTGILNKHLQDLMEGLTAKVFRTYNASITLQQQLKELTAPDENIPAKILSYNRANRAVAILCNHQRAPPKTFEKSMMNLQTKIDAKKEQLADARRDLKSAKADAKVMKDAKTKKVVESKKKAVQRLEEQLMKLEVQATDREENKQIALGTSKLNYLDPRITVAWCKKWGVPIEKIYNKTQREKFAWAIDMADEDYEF
The series is described as follows: Inhibition of human DNA topoisomerase 1-mediated relaxation of supercoiled DNA at 312 uM.

Series [2] concerns the target T1, DNA topoisomerase 1 (Homo sapiens). Kind of series: Inhibition of human DNA topoisomerase 1-mediated relaxation of supercoiled DNA at 450 uM.
The target in series [3] is T2, DNA topoisomerase 1 (Homo sapiens, UniProt P11387).
T2 sequence (P11387 whole entry): T1 sequence (whole entry)
The series is described as follows: Inhibition of human DNA topoisomerase 1-mediated relaxation of supercoiled DNA by gel electrophoresis.

Series [4] has as its target DNA topoisomerase 2-alpha (Homo sapiens, UniProt P11388). Kind of series: Inhibition of human DNA topoisomerase 2-mediated relaxation of supercoiled DNA by gel electrophoresis.
Series [5] has as its system A549. Kind of series: Cytotoxicity against human A549 cells at 25 uM after 48 hrs by WST8 assay. The format is functional, cell-based. (Tetrazolium dyes change colour on reduction, which living cells bring about.)
In series [6] the test system is PC-3. Kind of series: Cytotoxicity against human PC3 cells at 25 uM after 48 hrs by WST8 assay. The format is functional, cell-based.
Series [7] concerns HL-60. The series is described as follows: Cytotoxicity against human HL60 cells at 25 uM after 48 hrs by WST8 assay. The format is functional, cell-based.
Series [8] concerns PANC-1. Kind of series: Cytotoxicity against human PANC1 cells at 25 uM after 48 hrs by WST8 assay. It counts as functional, cell-based.
Another series has as its system MRC5. The series is described as follows: Cytotoxicity against human MRC5 cells at 25 uM after 48 hrs by WST8 assay. The format is cell-based. Particulars: mrc5, 48 h.
Series [9] deals with T1, DNA topoisomerase 1 (Homo sapiens). Kind of series: Inhibition of human DNA topoisomerase 1 assessed as intercalate into DNA at 312 uM.
Series [10] has as its target T2, DNA topoisomerase 1. The series is described as follows: Inhibition of human DNA topoisomerase 1 at free enzyme state.
The target of series [11] is T1, DNA topoisomerase 1 (Homo sapiens). Kind of series: Inhibition of human DNA topoisomerase 1 assessed as prevention of DNA-enzyme complex formation.
For series [12] the target is unchanged. The series is described as follows: Inhibition of human DNA topoisomerase 1 assessed as stabilize DNA-enzyme covalent complex.
For series [13], the system named is A549. The series is described as follows: Cytotoxicity against human A549 cells after 48 hrs by WST8 assay. It counts as functional. To be noted: A549, 48 h.
Series [14] concerns PC-3. Kind of series: Cytotoxicity against human PC3 cells after 48 hrs by WST8 assay. The format is functional. Particulars: PC-3, 48 h.
The test system of series [15] is HL-60. Kind of series: Cytotoxicity against human HL60 cells after 48 hrs by WST8 assay. The format is functional. To be noted: HL-60, 48 h.
Series [16] in a line: Cytotoxicity against human MRC5 cells after 48 hrs by WST8 assay. The format is cell-based.
Series [17] concerns the target T1, DNA topoisomerase 1 (Homo sapiens). Kind of series: Inhibition of human DNA topoisomerase 1-mediated relaxation of supercoiled DNA at >125 uM.
The test system of series [18] is PANC-1. The series is described as follows: Cytotoxicity against human PANC1 cells after 48 hrs by WST8 assay. It counts as functional. Particulars: PANC-1, 48 h.
Series [19] has as its target T1, DNA topoisomerase 1 (Homo sapiens). Kind of series: Inhibition of human DNA topoisomerase 1-mediated relaxation of supercoiled DNA at 63 to 125 uM.

pIC50: −log10 of the molar value. Activity calls are given as the source filed them. The rule behind the calls is not given here.

Chain of DNA topoisomerase 2-alpha (P11388 whole entry): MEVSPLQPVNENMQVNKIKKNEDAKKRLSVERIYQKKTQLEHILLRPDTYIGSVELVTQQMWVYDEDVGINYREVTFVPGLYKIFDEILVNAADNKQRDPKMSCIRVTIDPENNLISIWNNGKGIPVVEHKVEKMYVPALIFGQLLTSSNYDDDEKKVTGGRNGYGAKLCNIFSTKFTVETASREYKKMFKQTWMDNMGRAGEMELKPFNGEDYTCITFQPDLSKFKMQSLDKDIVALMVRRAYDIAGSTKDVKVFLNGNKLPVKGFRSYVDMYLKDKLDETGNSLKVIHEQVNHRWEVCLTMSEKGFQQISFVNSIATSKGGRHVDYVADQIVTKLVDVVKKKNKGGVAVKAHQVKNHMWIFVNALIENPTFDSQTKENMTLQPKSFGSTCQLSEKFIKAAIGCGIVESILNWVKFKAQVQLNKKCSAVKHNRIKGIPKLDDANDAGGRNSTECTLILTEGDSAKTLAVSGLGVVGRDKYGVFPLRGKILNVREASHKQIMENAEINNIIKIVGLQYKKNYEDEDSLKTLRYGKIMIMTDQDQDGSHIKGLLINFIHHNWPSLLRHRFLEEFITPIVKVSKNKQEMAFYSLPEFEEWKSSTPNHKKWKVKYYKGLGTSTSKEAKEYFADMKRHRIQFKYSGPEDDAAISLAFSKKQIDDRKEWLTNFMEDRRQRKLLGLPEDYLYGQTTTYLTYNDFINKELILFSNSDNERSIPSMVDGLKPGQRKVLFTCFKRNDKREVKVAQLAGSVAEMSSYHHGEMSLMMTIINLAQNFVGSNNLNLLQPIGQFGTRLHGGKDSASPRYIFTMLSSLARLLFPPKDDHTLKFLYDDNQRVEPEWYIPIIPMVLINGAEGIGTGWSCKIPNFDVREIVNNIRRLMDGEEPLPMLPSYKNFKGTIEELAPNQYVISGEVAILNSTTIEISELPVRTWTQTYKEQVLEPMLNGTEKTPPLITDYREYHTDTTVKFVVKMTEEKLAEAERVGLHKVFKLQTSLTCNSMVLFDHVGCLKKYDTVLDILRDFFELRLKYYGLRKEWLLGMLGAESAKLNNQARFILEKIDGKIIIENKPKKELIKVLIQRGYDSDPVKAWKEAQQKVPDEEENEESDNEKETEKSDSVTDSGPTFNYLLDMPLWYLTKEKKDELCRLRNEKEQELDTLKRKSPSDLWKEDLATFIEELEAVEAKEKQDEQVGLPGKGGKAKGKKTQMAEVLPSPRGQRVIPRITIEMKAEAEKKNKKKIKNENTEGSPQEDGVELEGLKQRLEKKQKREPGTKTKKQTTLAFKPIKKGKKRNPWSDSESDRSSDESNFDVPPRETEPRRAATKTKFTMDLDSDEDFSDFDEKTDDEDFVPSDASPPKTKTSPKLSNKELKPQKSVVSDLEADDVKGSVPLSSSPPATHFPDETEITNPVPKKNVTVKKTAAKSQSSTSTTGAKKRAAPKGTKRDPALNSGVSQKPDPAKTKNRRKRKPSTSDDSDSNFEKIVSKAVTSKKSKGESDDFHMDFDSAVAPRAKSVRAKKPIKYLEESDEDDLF

Take `C/C=C(/C)C(=O)O[C@H]1[C@H](O)[C@]2(CO)[C@H](O)[C@H](O)[C@]3(C)C(=CC[C@@H]4[C@@]5(C)CC[C@H](O[C@@H]6O[C@H](C(=O)O)[C@@H](O)[C@H](O[C@@H]7O[C@@H](CO)[C@H](O)[C@H]7O)[C@H]6O[C@@H]6O[C@H](CO)[C@H](O)[C@H](O)[C@H]6O)C(C)(C)[C@@H]5CC[C@]43C)[C@@H]2CC1(C)C` [AESCULIOSIDE IIA]: the inhibition result in series [1] was “inactive”. Moreover, the inhibition result in [2] is “Active”. For the same compound, the pIC50 at DNA topoisomerase 1 [3] is 3.96; in [4], below 3.60. In addition, the “growth inhibition (GI)” value with A549 [5], with PC-3 [6], in the series on HL-60 [7] and with PANC-1 [8] was “inactive” in each case. In addition, the “growth inhibition (GI)” value with MRC5 was “Not Active”.
In the case of `C/C=C(/C)C(=O)O[C@H]1[C@H](O)[C@]2(CO)[C@H](O)C[C@]3(C)C(=CC[C@@H]4[C@@]5(C)CC[C@H](O[C@@H]6O[C@H](C(=O)O)[C@@H](O)[C@H](O[C@@H]7O[C@@H](CO)[C@H](O)[C@H]7O)[C@H]6O[C@@H]6O[C@H](CO)[C@H](O)[C@H](O)[C@H]6O)C(C)(C)[C@@H]5CC[C@]43C)[C@@H]2CC1(C)C` [AESCULIOSIDE IIC], in series [9], the result was Active. Further, the inhibition result in series [1] and in series [12] was “inactive” each time. Also, the inhibition entry in series [2] and in series [11] was “Active” in each case. For the same compound, the figures for the pIC50 (against DNA topoisomerase 1 [10]; at DNA topoisomerase 1 [3]; in series [4]) were 4.62, 3.96 and below 3.60, respectively. In addition, the GI50 was determined as 8.67 µM in the series with A549 [13], 16.3 µM in the series with PC-3 [14] and 5.75 µM in the series with HL-60 [15]. Moreover, the “growth inhibition (GI)” value in the series on PANC-1 [8] was “inactive”. Further, in series [16], the GI50 at 48 h came out at 11.2 µM.
Consider `C/C=C(\C)C(=O)O[C@H]1[C@H](OC(C)=O)[C@]2(CO)[C@H](O)[C@H](O)[C@]3(C)C(=CC[C@@H]4[C@@]5(C)CC[C@H](O[C@@H]6O[C@H](C(=O)O)[C@@H](O)[C@H](O[C@@H]7O[C@@H](CO)[C@H](O)[C@H]7O)[C@H]6O[C@@H]6O[C@H](CO)[C@@H](O)[C@H](O)[C@H]6O)[C@](C)(CO)[C@@H]5CC[C@]43C)[C@@H]2CC1(C)C` [AESCULIOSIDE IIE], for which the inhibition entry in series [17] is “Active”. Moreover, the “growth inhibition (GI)” value in the series with A549 [5], with PC-3 [6], in the series on HL-60 [7] and in the series on PANC-1 [8] was “inactive” each time. Besides, the “growth inhibition (GI)” value with MRC5 was “Not Active”.
For `C/C=C(/C)C(=O)O[C@H]1[C@H](O)[C@]2(COC(C)=O)[C@H](O)C[C@]3(C)C(=CC[C@@H]4[C@@]5(C)CC[C@H](O[C@@H]6O[C@H](C(=O)O)[C@@H](O)[C@H](O[C@@H]7O[C@@H](CO)[C@H](O)[C@H]7O)[C@H]6O[C@@H]6O[C@H](CO)[C@@H](O)[C@H](O)[C@H]6O)[C@](C)(CO)[C@@H]5CC[C@]43C)[C@@H]2CC1(C)C` [AESCULIOSIDE IIIA], the result in series [9] was Active. Also, the inhibition entry in series [1] and in series [12] was “inactive” throughout. Besides, the inhibition result in series [2] and in series [11] was “Active” throughout. The pIC50 was 4.62 on DNA topoisomerase 1 [10], 3.93 against DNA topoisomerase 1 [3] and below 3.60 in series [4]. Moreover, the GI50 in the series with A549 [13] was 9.48 µM; in the series with PC-3 [14], 10.1 µM; in the series on HL-60 [15], 7.2 µM; in the series on PANC-1 [18] it was 16.7 µM. The same compound came in with a GI50 at 48 h in [16] of 8.65 µM.
Consider `C/C=C(/C)C(=O)O[C@H]1[C@H](OC(=O)C(C)C)[C@]2(CO)[C@H](O)[C@H](O)[C@]3(C)C(=CC[C@@H]4[C@@]5(C)CC[C@H](O[C@@H]6O[C@H](C(=O)O)[C@@H](O)[C@H](O[C@@H]7O[C@@H](CO)[C@H](O)[C@H]7O)[C@H]6O[C@@H]6O[C@H](CO)[C@@H](O)[C@H](O)[C@H]6O)[C@](C)(CO)[C@@H]5CC[C@]43C)[C@@H]2CC1(C)C` [AESCULIOSIDE IIIB], for which, in series [9], the outcome was Active. For the same compound, the inhibition entry in series [1] and in series [12] was “inactive” each time. For the same compound, the inhibition result in [2] and in series [11] was “Active” each time. Also, the pIC50 on DNA topoisomerase 1 [10] is 4.62; on DNA topoisomerase 1 [3], 3.80; in series [4], below 3.60. The GI50 with A549 [13] was determined as 11.2 µM; with PC-3 [14] it was 9.93 µM; in the series with HL-60 [15], 10.9 µM. Besides, the “growth inhibition (GI)” value with PANC-1 [8] was “inactive”. Also, the “growth inhibition (GI)” value in the series on MRC5 was “Not Active”.
Regarding `C/C=C(\C)C(=O)O[C@H]1[C@H](OC(=O)C(C)CC)[C@]2(CO)[C@H](O)[C@H](O)[C@]3(C)C(=CC[C@@H]4[C@@]5(C)CC[C@H](O[C@@H]6O[C@H](C(=O)O)[C@@H](O)[C@H](O[C@@H]7O[C@@H](CO)[C@H](O)[C@H]7O)[C@H]6O[C@@H]6O[C@H](CO)[C@H](O)[C@H](O)[C@H]6O)C(C)(C)[C@@H]5CC[C@]43C)[C@@H]2CC1(C)C` (stereo not given in full) [AESCULIOSIDE IIIC], the result in [9] was Active. For the same compound, in series [2], the inhibition result is “Active”. Further, the pIC50 against DNA topoisomerase 1 [3] is 3.88; in series [4], below 3.60. Moreover, the GI50 stood at 17.6 µM with A549 [13], 12.5 µM with PC-3 [14], 13.6 µM in the series with HL-60 [15] and 18.5 µM in the series on PANC-1 [18]. The “growth inhibition (GI)” value in the series on MRC5 is “Not Active”.
`C/C=C(\C)C(=O)O[C@H]1[C@H](OC(=O)/C(C)=C/C)[C@]2(CO)[C@H](O)[C@H](O)[C@]3(C)C(=CC[C@@H]4[C@@]5(C)CC[C@H](O[C@@H]6O[C@H](C(=O)O)[C@@H](O)[C@H](O[C@@H]7O[C@@H](CO)[C@H](O)[C@H]7O)[C@H]6O[C@@H]6O[C@H](CO)[C@@H](O)[C@H](O)[C@H]6O)C(C)(C)[C@@H]5CC[C@]43C)[C@@H]2CC1(C)C` [AESCULIOSIDE IIIF]: the inhibition entry in series [17] and in series [19] was “Active” each time. The pIC50 against DNA topoisomerase 1 [3] is 4.27; in [4], below 3.60. Besides, the GI50 in the series with A549 [13] was above 25 µM; in the series with PC-3 [14], 11.7 µM; with HL-60 [15], 14.2 µM; in the series on PANC-1 [18], 23.5 µM. The same compound displayed a GI50 at 48 h in series [16] above 25 µM.
As for `C/C=C(/C)C(=O)O[C@H]1[C@H](OC(C)=O)[C@]2(CO)[C@H](O)C[C@]3(C)C(=CC[C@@H]4[C@@]5(C)CC[C@H](O[C@@H]6O[C@H](C(=O)O)[C@@H](O)[C@H](O[C@@H]7O[C@@H](CO)[C@H](O)[C@H]7O)[C@H]6O[C@@H]6O[C@H](CO)[C@H](O)[C@H](O)[C@H]6O)C(C)(C)[C@@H]5CC[C@]43C)[C@@H]2CC1(C)C` [AESCULIOSIDE IIK], in [17], the inhibition result was “Active”. In addition, the pIC50 (on DNA topoisomerase 1 [3]; in series [4]) was below 3.60 each time. Further, the GI50 came to 15.1 µM in the series on A549 [13], 8.35 µM in the series on PC-3 [14], 8.75 µM with HL-60 [15] and 21.5 µM in the series with PANC-1 [18]. The compound also showed a GI50 at 48 h in series [16] of 9.89 µM.

Source of the values: ChEMBL document CHEMBL1157938, “Cytotoxicity and inhibition of DNA topoisomerase I of polyhydroxylated triterpenoids and triterpenoid glycosides” (Bioorg Med Chem Lett, 2010).
